Read-outs that look alike come from different tables or passages of the source.

The subject of assay [1] is human primary PR-negative endometrial cancer cells HEC-1B. The assay is described as follows: Mouse model of primary PR-negative endometrial cancer (HEC-1B xenograft). It counts as in vivo, BNX nu/nu mice. The note with it: mean±SD of 20 tumors, MA 10 mg/day i.p. 5 days/week, SC 0.3 mg/kg i.m. each alternate day. The protocol: Treatment was started on the next day after the injection and discontinued after 5 weeks. Cohorts (10 mice/group) received either:
1) Vehicle control group: vehicle only, 0.9% sodium chloride for injection i.m each alternate day and i.p. for 5 days/week. 2) MA only control group: megestrol acetate (MA) (10 mg/day) i.p. for 5 days/week.
Tumors were measured every week with vernier calipers. Tumor size was calculated using the formula: A (length)×B (width)×C (height)×0.5236.

In a further assay the test system is MDA-MB-468 tumor cells. The conditions noted are these: day 21, alone or with SC 6 mg/mouse i.m. twice a week. On the procedure:
The MDA-MB-468 (ATCC collection number ATCC® HTB-132, Neve et al., Cancer Cell 2006, 10:515-527) tumor cells (the xenograft of human primary ER-negative breast cancer) were maintained in vitro as a monolayer culture in L-15 medium supplemented with 10% heat inactivated fetal bovine serum, 100 U/ml penicillin and 100 μg/ml streptomycin, and L-glutamine (2 mM) at 37° C. in an atmosphere of 5% CO2 in air. The tumor cells were routinely subcultured twice weekly by trypsin-EDTA treatment. The cells growing in an exponential growth phase were harvested and counted for tumor inoculation.
BALB/c nude (Shanghai Sino-British SIPPR/BK Laboratory Animal Co., Ltd.), 6-8 weeks old female mice were inoculated subcutaneously at the right flank with MDA-MB-468 tumor cells (1×10^7) in 0.2 ml of PBS supplemented with BD Matrigel (1:1) for tumor development. The treatments were started on day 17 after tumor inoculation when the average tumor size reached approximately 170 mm^3. […] Each group consisted of 8 tumor-bearing mice.
Tumor size was measured twice weekly in two dimensions using a caliper, and the volume was expressed in mm3 using the formula: V=0.5 a×b2 where a and b are the long and short diameters of the tumor, respectively.
Significance level was assumed as 0.05.

Assay [2] concerns secondary PR negative Ishikawa cells. The assay is described as follows: Model of secondary PR-negative endometrial cancer (progestin-resistant Ishikawa xenograft). The class given is in vivo, MF-1 female nude mice. The note with it: MPA 250 mg/kg/day i.p. 5 days per week, SC 0.3 mg/kg i.m. each alternate day. The protocol:
to obtain the secondary progestin-resistant subclones of human endometrial cancer cells, initially progestin sensitive PR-positive effect parent Ishikawa cells were routinely cultured in DMEM/F12 medium supplemented with 5% fetal bovine serum and medroxyprogesterone acetate (MPA) with 2.5 μM increases in MPA concentration (1.0-10 μM) every 4 weeks at 37° C. in a humidified atmosphere of 5% CO2. When the surviving cells had grown to a high density but were still less than confluent, cells were subcloned using 0.02% EDTA and 0.25% trypsin prepared in Hanks' balanced salt solution. MPA-containing medium was replaced every 2-3 days. Cells proliferating in 10 μM MPA with the same doubling time as the initial Ishikawa cells proliferating in the medium without MPA, were considered as secondary progestin-resistant Ishikawa cells. […] 2×10^6 secondary PR negative Ishikawa cells were inoculated into the flanks of MF-1 female nude mice in 100 μl Matrigel.
1) Vehicle control group: vehicle only, −0.9% sodium chloride for injection i.m each alternate day and i.p. for 5 days per week. 2) MPA only control group: medroxyprogesterone acetate (MPA) (250 mg/kg/day) i.p. for 5 days per week.
Tumors were measured with vernier calipers weekly. Tumor volumes (mm^3) were calculated using the modified ellipsoid formula: (length (mm)×width (mm)^2)/2. The ratio (percentage) of “Tumor volume at day n” to “tumor volume at day “0” was calculated for each animal. At the end of the experiments (day 35) animals were euthanized.

Where [3] appears, read: TAM 50 mg/kg oral gavage every day.
The mark [4] stands for this setting: TAM 100 mg/kg oral gavage every day.

As for `CC(=O)O[C@]1(C(C)=O)CC[C@H]2[C@@H]3C=C(C)C4=CC(=O)CC[C@]4(C)[C@H]3CC[C@@]21C` [MA, megestrol acetate], the Tumor volume is listed as 58 ± 16 mm^3 in assay [1] (Week 1); 177 ± 19 mm^3 in assay [1] (Week 2); 510 ± 66 mm^3 in assay [1] (Week 3); 794 ± 111 mm^3 in assay [1] (Week 4); 1383 ± 151 mm^3 in assay [1] (Week 5).
Regarding `CC/C(=C(\c1ccccc1)c1ccc(OCCN(C)C)cc1)c1ccccc1` [TAM, Tamoxifen], the TGI in the assay on MDA-MB-468 tumor cells (setting [3]) is −65%; in the assay with MDA-MB-468 tumor cells (setting [4]) it was −1%. For the same molecule, the “Tumor volume” value in the assay with MDA-MB-468 tumor cells (setting [3]) was found to be 473 ± 59 mm^3; with MDA-MB-468 tumor cells (setting [4]) it was 355 ± 25 mm^3.
In the case of `CC(=O)O[C@]1(C(C)=O)CC[C@H]2[C@@H]3C[C@H](C)C4=CC(=O)CC[C@]4(C)[C@H]3CC[C@@]21C` [MPA, medroxyprogesterone acetate], the “Tumor volume at day n/tumor volume at day "0", %, mean ± SEM” value was 170 ± 19% in assay [2] (Day 7); 412 ± 36% in assay [2] (Day 14); 512 ± 66% in assay [2] (Day 21); 822 ± 89% in assay [2] (Day 28); 1224 ± 99% in assay [2] (Day 35).
